Values after ≈ are worked out from the molar mass of the structure shown. Like-named read-outs stand apart in the source and are kept apart here.
What was measured:
[1] = test system: K. pneumoniae NVT1001 and its ΔompK35/36 and/or ΔramR mutants; test: Etest MIC, OmpK35/36 loss and AcrAB-TolC overexpression (ΔramR) strains (Table 6); format: cell-based, Klebsiella pneumoniae; conditions: Klebsiella pneumoniae
Method in brief: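 Ceftazidime and cefotaxime were tested by CLSI broth microdilution on the blaOXA-48 pACYC177 transformant of NVT1001, using CLSI 2017 breakpoints. Parent, porin-deleted (ΔompK35/36) and ΔramR strains were tested by Etest, with values between two-fold dilutions rounded up.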

[2] = test system: K. pneumoniae NVT1001 ΔramRΔompK35/36 mutant and its revertants; test: Etest MIC, ΔramRΔompK35/36 mutant and its revertants (Table 7); format: cell-based; conditions: Klebsiella pneumoniae
[3] = ΔramRΔ35/36, ΔramRΔompK35/36 mutant
[4] = ΔramRΔompK35/36::ompK35/36 revertant
[5] = ΔramRΔompK35/36::ompK35 revertant
[6] = ΔramRΔompK35/36::ompK36 revertant
[7] = ΔramRΔompK35/36::ramR revertant
[8] = ΔramRΔompK35/36::ramR::ompK35/36 revertant
[9] = ΔramRΔompK35/36::ramR::ompK35 revertant
[10] = ΔramRΔompK35/36::ramR::ompK36 revertant

| SMILES | MIC ([1]; WT, NVT1001, read-out: MIC) [µg/mL] | MIC ([1]; Δ35, ΔompK35 mutant) [µg/mL] | MIC ([1]; Δ35/36, ΔompK35/36 mutant) [µg/mL] | MIC ([1]; Δ36, ΔompK36 mutant) [µg/mL] | MIC ([1]; ΔramR mutant) [µg/mL] | MIC ([1]; ΔramRΔ35, ΔramRΔompK35 mutant) [µg/mL] | MIC [1, 3] [µg/mL] | MIC ([1]; ΔramRΔ36, ΔramRΔompK36 mutant) [µg/mL] | MIC [2, 4] [µg/mL] | MIC [2, 5] [µg/mL] | MIC [2, 6] [µg/mL] | MIC [2, 7] [µg/mL] | MIC [2, 8] [µg/mL] | MIC [2, 9] [µg/mL] | MIC [2, 10] [µg/mL] | MIC ([2]; ΔramRΔompK35/36 mutant) [µg/mL] |
| --- | --- | --- | --- | --- | --- | --- | --- | --- | --- | --- | --- | --- | --- | --- | --- | --- |
| CCn1cc(C(=O)O)c(=O)c2ccc(C)nc21 [Nalidixic acid, nalidixic acid] | 4 (≈ 17.2 µM) | 8 (≈ 34.4 µM) | 8 (≈ 34.4 µM) | 4 (≈ 17.2 µM) | 32 (≈ 138 µM) | 64 (≈ 276 µM) | 32 (≈ 138 µM) | 32 (≈ 138 µM) | 64 | 32 | 64 | 8 | 8 | 8 | 8 | 32 |
| COc1c(N2C[C@@H]3CCCN[C@@H]3C2)c(F)cc2c(=O)c(C(=O)O)cn(C3CC3)c12 [Moxifloxacin, moxifloxacin] | 0.125 (≈ 0.311 µM) | 0.125 (≈ 0.311 µM) | 0.125 (≈ 0.311 µM) | 0.06 (≈ 0.149 µM) | 1 (≈ 2.49 µM) | 1 (≈ 2.49 µM) | 1 (≈ 2.49 µM) | 1 (≈ 2.49 µM) | 0.5 | 1 | 0.5 | 0.06 | 0.125 | 0.06 | 0.125 | 1 |
| C[C@H]1COc2c(N3CCN(C)CC3)c(F)cc3c(=O)c(C(=O)O)cn1c23 [Levofloxacin, levofloxacin] | 0.06 (≈ 0.166 µM) | 0.125 (≈ 0.346 µM) | 0.125 (≈ 0.346 µM) | 0.125 (≈ 0.346 µM) | 1 (≈ 2.77 µM) | 1 (≈ 2.77 µM) | 1 (≈ 2.77 µM) | 1 (≈ 2.77 µM) | 0.5 | 1 | 0.5 | 0.125 | 0.06 | 0.06 | 0.125 | 1 |
| CC1COc2c(N3CCN(C)CC3)c(F)cc3c(=O)c(C(=O)O)cn1c23 (centres unmarked) [Ofloxacin, ofloxacin] | 0.25 (≈ 0.692 µM) | 0.25 (≈ 0.692 µM) | 0.25 (≈ 0.692 µM) | 0.25 (≈ 0.692 µM) | 2 (≈ 5.53 µM) | 2 (≈ 5.53 µM) | 2 (≈ 5.53 µM) | 2 (≈ 5.53 µM) | 2 | 2 | 2 | 0.25 | 0.25 | 0.25 | 0.25 | 2 |
| CCn1cc(C(=O)O)c(=O)c2cc(F)c(N3CCNCC3)cc21 [Norfloxacin, norfloxacin] | 0.25 (≈ 0.783 µM) | 0.25 (≈ 0.783 µM) | 0.5 (≈ 1.57 µM) | 0.25 (≈ 0.783 µM) | 2 (≈ 6.26 µM) | 2 (≈ 6.26 µM) | 2 (≈ 6.26 µM) | 2 (≈ 6.26 µM) | 2 | 2 | 2 | 0.5 | 0.25 | 0.25 | 0.25 | 2 |

Reference: US10760110B2, “Antibiotic testing and screening system” (priority 2017, dated 2020)
